Legend:
[1] = tested on: Human immunodeficiency virus 1; experiment: Antiviral activity against wild type HIV1 NL4-3 habouring Gag protein V370A mutant infected in human MT2 cells after 4 to 5 days by dual-luciferase reporter gene assay; format: functional, organism-based; conditions: Human immunodeficiency virus 1, NL4-3, MT2
[2] = tested on: Human immunodeficiency virus 1; experiment: Antiviral activity against wild type HIV1 NL4-3 infected in human MT2 cells after 4 to 5 days by dual-luciferase reporter gene assay in presence of human serum albumin; format: functional, organism-based; conditions: Human immunodeficiency virus 1, NL4-3, MT2
[3] = tested on: Human immunodeficiency virus 1; experiment: Antiviral activity against wild type HIV1 NL4-3 infected in human MT2 cells after 4 to 5 days by dual-luciferase reporter gene assay; format: functional, organism-based; conditions: Human immunodeficiency virus 1, NL4-3, MT2
[4] = Cytotoxicity against human MT2 cells; format: cell-based
[5] = tested on: Human immunodeficiency virus 1; experiment: Antiviral activity against wild type HIV1 NL4-3 habouring Gag protein delta V370 infected in human MT2 cells after 4 to 5 days by dual-luciferase reporter gene assay; format: functional, organism-based; conditions: Human immunodeficiency virus 1, NL4-3, MT2
[6] = AUC (0 to 6 hrs) in cannula implanted rat at 5 mg/kg administered through oral gavage after 24 hrs by LC-MS/MS analysis; format: ADME, organism-based; design: dose 5 mg/kg, time < 6 hr, route oral; conditions: in vivo
[7] = Plasma clearance in cannula implanted rat at 1 mg/kg, iv by LC-MS/MS analysis; format: ADME, organism-based
[8] = Metabolic stability in human liver microsomes at 0.5 uM by LC-MS/MS analysis in presence of NADPH; format: ADME
[9] = Metabolic stability in rat liver microsomes at 0.5 uM by LC-MS/MS analysis in presence of NADPH; format: ADME
[10] = Cmax in cannula implanted rat at 5 mg/kg administered through oral gavage after 24 hrs by LC-MS/MS analysis; format: ADME, organism-based; design: dose 5 mg/kg, route oral; conditions: in vivo

Row | SMILES | EC50 [1] | EC50 [2] | EC50 [3] | CC50 [4] | EC50 [5] | AUC(0-t) at 6 h [6] | clearance [7] | half-life at 0.5 µM [8] | half-life at 0.5 µM [9] | Cmax [10]
1 | C=C(C)[C@@H]1CC[C@]2(C(=O)NC)CC[C@]3(C)[C@H](CC[C@@H]4[C@@]5(C)CC=C(c6ccc(C(=O)O)cc6)C(C)(C)[C@@H]5CC[C@]43C)[C@@H]12 | 252 nM | 28 nM | 10 nM | 7000 nM | – | – | – | – | – | –
2 | C=C(C)[C@@H]1CC[C@]2(C(=O)NCCN)CC[C@]3(C)[C@H](CC[C@@H]4[C@@]5(C)CC=C(c6ccc(C(=O)O)cc6)C(C)(C)[C@@H]5CC[C@]43C)[C@@H]12 | 7 nM | – | 3 nM | 4000 nM | 702 nM | – | – | – | – | –
3 | C=C(C)[C@@H]1CC[C@]2(C(=O)NCCN(CC)CC(=O)O)CC[C@]3(C)[C@H](CC[C@@H]4[C@@]5(C)CC=C(c6ccc(C(=O)O)cc6)C(C)(C)[C@@H]5CC[C@]43C)[C@@H]12 | 9 nM | – | 3 nM | 17000 nM | 64 nM | 0.22 µM·h | 26.7 mL/min/kg | > 2 h | > 2 h | –
4 | C=C(C)[C@@H]1CC[C@]2(C(=O)NCC(=O)O)CC[C@]3(C)[C@H](CC[C@@H]4[C@@]5(C)CC=C(c6ccc(C(=O)O)cc6)C(C)(C)[C@@H]5CC[C@]43C)[C@@H]12 | > 2000 nM | – | 106 nM | > 50000 nM | > 2000 nM | – | – | – | – | –
5 | C=C(C)[C@@H]1CC[C@]2(C(=O)NS(=O)(=O)C3CC3)CC[C@]3(C)[C@H](CC[C@@H]4[C@@]5(C)CC=C(c6ccc(C(=O)O)cc6)C(C)(C)[C@@H]5CC[C@]43C)[C@@H]12 | 67 nM | 166 nM | 59 nM | 18000 nM | 1190 nM | – | – | – | – | –
6 | C=C(C)[C@@H]1CC[C@]2(C(=O)NCCC(C)C)CC[C@]3(C)[C@H](CC[C@@H]4[C@@]5(C)CC=C(c6ccc(C(=O)O)cc6)C(C)(C)[C@@H]5CC[C@]43C)[C@@H]12 | 101 nM | – | 47 nM | 11000 nM | 1610 nM | 1.58 µM·h | 0.6 mL/min/kg | – | – | 731 nM
7 | C=C(C)[C@@H]1CC[C@]2(C(=O)N[C@@H](CN(C)C)C(=O)O)CC[C@]3(C)[C@H](CC[C@@H]4[C@@]5(C)CC=C(c6ccc(C(=O)O)cc6)C(C)(C)[C@@H]5CC[C@]43C)[C@@H]12 | 772 nM | – | 46 nM | 25000 nM | > 160 nM | – | – | – | – | –
8 | C=C(C)[C@@H]1CC[C@]2(C(=O)NCCNCC(=O)O)CC[C@]3(C)[C@H](CC[C@@H]4[C@@]5(C)CC=C(c6ccc(C(=O)O)cc6)C(C)(C)[C@@H]5CC[C@]43C)[C@@H]12 | 15 nM | – | 42 nM | > 2000 nM | 61 nM | – | – | – | – | –
9 | C=C(C)[C@@H]1CC[C@]2(C(=O)NCc3nccs3)CC[C@]3(C)[C@H](CC[C@@H]4[C@@]5(C)CC=C(c6ccc(C(=O)O)cc6)C(C)(C)[C@@H]5CC[C@]43C)[C@@H]12 | 28 nM | – | 15 nM | 6000 nM | 690 nM | – | – | – | – | –
10 | C=C(C)[C@@H]1CC[C@]2(C(=O)NCCN(CC)CCC(=O)O)CC[C@]3(C)[C@H](CC[C@@H]4[C@@]5(C)CC=C(c6ccc(C(=O)O)cc6)C(C)(C)[C@@H]5CC[C@]43C)[C@@H]12 | 6 nM | – | 2 nM | > 17000 nM | 119 nM | – | – | – | – | –
11 | C=C(C)[C@@H]1CC[C@]2(C(=O)NCCN(CC)CC)CC[C@]3(C)[C@H](CC[C@@H]4[C@@]5(C)CC=C(c6ccc(C(=O)O)cc6)C(C)(C)[C@@H]5CC[C@]43C)[C@@H]12 | 7 nM | – | 2 nM | 33000 nM | 39 nM | 0.809 µM·h | 3.3 mL/min/kg | – | – | 229 nM
12 | C=C(C)[C@@H]1CC[C@]2(C(=O)NCCN(C)C(C)=O)CC[C@]3(C)[C@H](CC[C@@H]4[C@@]5(C)CC=C(c6ccc(C(=O)O)cc6)C(C)(C)[C@@H]5CC[C@]43C)[C@@H]12 | 2 nM | – | 3 nM | 9000 nM | 224 nM | – | – | – | – | –
13 | C=C(C)[C@@H]1CC[C@]2(C(=O)NCc3ccccn3)CC[C@]3(C)[C@H](CC[C@@H]4[C@@]5(C)CC=C(c6ccc(C(=O)O)cc6)C(C)(C)[C@@H]5CC[C@]43C)[C@@H]12 | 31 nM | 9 nM | 5 nM | 1000 nM | – | – | – | – | – | –
14 | C=C(C)[C@@H]1CC[C@]2(C(=O)NS(C)(=O)=O)CC[C@]3(C)[C@H](CC[C@@H]4[C@@]5(C)CC=C(c6ccc(C(=O)O)cc6)C(C)(C)[C@@H]5CC[C@]43C)[C@@H]12 | 282 nM | 1520 nM | 47 nM | 16000 nM | – | – | – | – | – | –
15 | C=C(C)[C@@H]1CC[C@]2(C(=O)NCCNC(C)=O)CC[C@]3(C)[C@H](CC[C@@H]4[C@@]5(C)CC=C(c6ccc(C(=O)O)cc6)C(C)(C)[C@@H]5CC[C@]43C)[C@@H]12 | 24 nM | 22 nM | 5 nM | 12000 nM | 361 nM | – | – | – | – | –
16 | C=C(C)[C@@H]1CC[C@]2(C(=O)N3CCCCC3)CC[C@]3(C)[C@H](CC[C@@H]4[C@@]5(C)CC=C(c6ccc(C(=O)O)cc6)C(C)(C)[C@@H]5CC[C@]43C)[C@@H]12 | – | 1580 nM | 369 nM | 200 nM | – | – | – | – | – | –
17 | C=C(C)[C@@H]1CC[C@]2(C(=O)NCCN3CCCCC3)CC[C@]3(C)[C@H](CC[C@@H]4[C@@]5(C)CC=C(c6ccc(C(=O)O)cc6)C(C)(C)[C@@H]5CC[C@]43C)[C@@H]12 | 10 nM | – | 7 nM | 10000 nM | 359 nM | – | – | – | – | –
18 | C=C(C)[C@@H]1CC[C@]2(C(=O)NCCN(C)CC(=O)O)CC[C@]3(C)[C@H](CC[C@@H]4[C@@]5(C)CC=C(c6ccc(C(=O)O)cc6)C(C)(C)[C@@H]5CC[C@]43C)[C@@H]12 | 51 nM | – | 10 nM | 200 nM | 160 nM | – | – | – | – | –
19 | C=C(C)[C@@H]1CC[C@]2(C(=O)NCCO)CC[C@]3(C)[C@H](CC[C@@H]4[C@@]5(C)CC=C(c6ccc(C(=O)O)cc6)C(C)(C)[C@@H]5CC[C@]43C)[C@@H]12 | 41 nM | 39 nM | 7 nM | 7000 nM | > 2000 nM | – | – | – | – | –
20 | C=C(C)[C@@H]1CC[C@]2(C(=O)NCC(N)=O)CC[C@]3(C)[C@H](CC[C@@H]4[C@@]5(C)CC=C(c6ccc(C(=O)O)cc6)C(C)(C)[C@@H]5CC[C@]43C)[C@@H]12 | 32 nM | – | 6 nM | 9000 nM | 2000 nM | – | – | – | – | –
21 | C=C(C)[C@@H]1CC[C@]2(C(=O)NCC(C)(C)N)CC[C@]3(C)[C@H](CC[C@@H]4[C@@]5(C)CC=C(c6ccc(C(=O)O)cc6)C(C)(C)[C@@H]5CC[C@]43C)[C@@H]12 | 21 nM | – | 7 nM | 20000 nM | 800 nM | – | – | – | – | –
22 | C=C(C)[C@@H]1CC[C@]2(C(=O)NCCOC)CC[C@]3(C)[C@H](CC[C@@H]4[C@@]5(C)CC=C(c6ccc(C(=O)O)cc6)C(C)(C)[C@@H]5CC[C@]43C)[C@@H]12 | 152 nM | – | 17 nM | 14000 nM | – | – | – | – | – | –
23 | C=C(C)[C@@H]1CC[C@]2(C(=O)NCCN3CCOCC3)CC[C@]3(C)[C@H](CC[C@@H]4[C@@]5(C)CC=C(c6ccc(C(=O)O)cc6)C(C)(C)[C@@H]5CC[C@]43C)[C@@H]12 | 12 nM | 28 nM | 7 nM | 5000 nM | 77 nM | – | – | – | – | –
24 | C=C(C)[C@@H]1CC[C@]2(C(=O)NCCN(CC(=O)O)CC(=O)O)CC[C@]3(C)[C@H](CC[C@@H]4[C@@]5(C)CC=C(c6ccc(C(=O)O)cc6)C(C)(C)[C@@H]5CC[C@]43C)[C@@H]12 | > 2000 nM | – | > 2000 nM | > 20000 nM | > 2000 nM | – | – | – | – | –
